Reference: patent US7456154B2 (priority 2001, dated 2008)

Key:
Cynomolgus monkeys = experiment: 7-day toxicology study of hEN101 in Cynomolgus monkeys; format: in vivo, Cynomolgus monkey
Description: This experiment was conducted with six (3 males and 3 females) purpose-bred 15 month-old (young adult) Cynomolgus monkeys, divided in three groups (1, 2 and 3) of one male and one female each. Groups 1 and 2 received hEN101 daily by o.g. for a period of 7 days, at a concentration of 0.15 and 0.50 μg/g/day, respectively. Group 3 received daily i.v. injections of hEN101 for a period of 7 days at a dosage of 0.50 μg/g/day.
Over a 12 hour period, plasma samples were obtained during the second treatment day to investigate the toxicokinetic profile at each dosage. The toxicology study consisted of checking the animals during the 7 days of treatment for gross signs of toxicity by the following parameters: mortality, body weight, food consumption, electrocardiography, blood pressure, hematology (peripheral blood), and blood chemistry. At 7 days the monkeys were sacrificed and examined post-mortem for macroscopic pathology and organ weight. Fixed sections of brain (cerebellum, cerebrum, midbrain, medulla), caecum, colon, duodenum, heart (auricular and ventriclar regions), ileum, jejunum, kidneys (cortex, medulla, papilla regions), liver (two main lobes), lungs (two major lobes, including bronchi), lymph nodes (mandibular and mesenteric), esophagus, rectum, sciatic nerve, skeletal muscle (thigh), spinal cord (transverse and longitudinal sections at cervical level), spleen and stomach (body and antrum) were stained with hematoxylin/eosin to reveal necrosis or cell death.

AChE-R = experiment: Immunohistochemical staining of AChE-R in rat muscle; format: in vivo; settings: healthy and EAMG rats, 24 h after single i.v. injection of 250 μg/Kg
Description: Immunocytochemistry: Muscle sections were deparaffinized with xylene and were re-hydrated in graded ethanol solutions (100%, 90%, 70%) and PBS. Heat-induced antigen retrieval was performed by microwave treatment (850 W for rapid boil following 10 min in reduced intensity) in 500 ml of 0.01M citrate buffer pH 6.0. Slides were cooled to room temperature and rinsed in double distilled water. Non-specific binding was blocked by 4% nominal donkey serum in PBS with 0.3% Triton X-100 and 0.05% Tween 20 (1 hr at room temperature). Biotinylated primary antibody was diluted (1:100 and 1:30 for rabbit anti-AChE-R [Sternfeld et al. (2000) id ibid] and goat anti-nAChR, respectively) in the same buffer and slides were incubated 1 hr at room temperature following overnight incubation at 4° C. Sections were rinsed and incubated with alkaline phosphatase-conjugated secondary antibody, diluted in the same blocking buffer 1 hr at room temperature and then overnight at 4° C. Detection was with the alkaline phosphatase substrate Fast Red (Roche Diagnostics, Mannheim, Germany). Slides were simultaneously transferred to a stop solution (25 mM EDTA, 0.05% Triton X-100, 1 mM levamisole in PBS, pH 7.2), rinsed in PBS and cover-slipped with Immunomount (Shandon). […]

AChE-R mRNA [1] = experiment: In situ hybridization of AChE-R mRNA in rat muscle; format: in vivo; settings: healthy and EAMG rats
Description: (§1) In situ hybridization: Tissues were fixed in 4% paraformaldehyde and cut into 7 μm paraffin embedded sections. Spinal cord sections were deparaffinized, rehydrated using serial ethanol dilutions and permeabilized with proteinase K (10 μg/ml at room temp.). Slides were exposed to 5′ biotinylated, fully 2′-oxymethylated AChE-R or AChE-S-specific 50-mer cRNA probes complementary to human ACHE pseudo-intron 4 or exon 6, respectively [Grisaru et al. (2001) id ibid.]. Hybridization was performed overnight at 52° C. in hybridization mixture containing 10 μg/ml probe, 50 μg/ml yeast tRNA, 50 μg/ml heparin and 50% formamide in 375 mM Na chloride, 37.5 mM Na citrate, pH 4.5. For monkey sections, the probe was constructed according to the human AChE-R sequence; for rat sections, according to the mouse sequence. Slides were washed to remove non-hybridized probe, blocked with 1% skim milk containing 0.01% Tween-20 and 2 mM levamisole, an alkaline phosphatase inhibitor used to suppress non-specific staining and incubate with streptavidin-alkaline phosphatase (Amersham Pharmacia). Fast Red™ substrate (Roche Diagnostics) was used for detection. DAPI staining (Sigma Chemical Co., St. Louis, Mo., USA) served to visualize nuclei. Microscope images were analyzed with Image Pro Plus 4.0 (Media Cybernetics) software. […]

AChE-S mRNA = experiment: In situ hybridization of AChE-S mRNA in rat muscle; format: in vivo; settings: 24 h after single i.v. injection
Description: as §1

AChE-R mRNA [2] = experiment: In situ hybridization of AChE-R mRNA in rat spinal cord neurons; format: in vivo; settings: 500 μg/kg i.v. daily, 7 days
Description: FIG. 17 Effect of rEN101 on AChE-R mRNA in rat spinal cord neurons. The presence of AChE-R mRNA-positive cells was determined in spinal cord section of rats that had been treated for 7 days with rEN101 (500 μg/kg. i.v., daily).
In situ hybridization: Tissues were fixed in 4% paraformaldehyde and cut into 7 μm paraffin embedded sections. Spinal cord sections were deparaffinized, rehydrated using serial ethanol dilutions and permeabilized with proteinase K (10 μg/ml at room temp.). Slides were exposed to 5′ biotinylated, fully 2′-oxymethylated AChE-R or AChE-S-specific 50-mer cRNA probes complementary to human ACHE pseudo-intron 4 or exon 6, respectively [Grisaru et al. (2001) id ibid.]. Hybridization was performed overnight at 52° C. in hybridization mixture containing 10 μg/ml probe, 50 μg/ml yeast tRNA, 50 μg/ml heparin and 50% formamide in 375 mM Na chloride, 37.5 mM Na citrate, pH 4.5. For monkey sections, the probe was constructed according to the human AChE-R sequence; for rat sections, according to the mouse sequence. Slides were washed to remove non-hybridized probe, blocked with 1% skim milk containing 0.01% Tween-20 and 2 mM levamisole, an alkaline phosphatase inhibitor used to suppress non-specific staining and incubate with streptavidin-alkaline phosphatase (Amersham Pharmacia). […] Microscope images were analyzed with Image Pro Plus 4.0 (Media Cybernetics) software.

## 5′-CTGCCACGTTCTCCTGCACC-3′ [hEN101]
Cynomolgus monkeys; i.v. 0.50 μg/g/day, 7 days
  Post-mortem finding at injection site: some irritation of the perivascular tissue at the site of intravenous injection
Cynomolgus monkeys; in each group, possibly associated with treatment
  Animals with slight healing erosions in the body of the stomach post-mortem: 1 of 2
Cynomolgus monkeys; o.g. 0.15 or 0.50 μg/g/day, i.v. 0.50 μg/g/day, 7 days
  Clinical investigations for toxicity: no toxicological effects

## 5′-CTGCGATATTTTCTTGTACC-3′ (chemistry not given here) [rEN101]
AChE-R
  AChE-R immunohistochemical staining in muscle: significantly reduced
AChE-R mRNA [1]
  AChE-R mRNA labeling in muscle: almost to the limit of detection
AChE-S mRNA
  AChE-S mRNA labeling in muscle: only nominally affected
AChE-R mRNA [2]
  AChE-R mRNA in rat spinal cord neurons: does not suppress AChE-R mRNA
